Counter-ions that a name gives are not always drawn.

For the assay, the target named is T1, human clotting factor VIIa (Homo sapiens, UniProt P08709).
T1 construct: a human clotting factor VIIa (hereinafter, “Factor VIIa”) purified sample; purchased Enzyme Research Laboratories HFVIIa
T1 sequence (P08709 213-466 limits assumed): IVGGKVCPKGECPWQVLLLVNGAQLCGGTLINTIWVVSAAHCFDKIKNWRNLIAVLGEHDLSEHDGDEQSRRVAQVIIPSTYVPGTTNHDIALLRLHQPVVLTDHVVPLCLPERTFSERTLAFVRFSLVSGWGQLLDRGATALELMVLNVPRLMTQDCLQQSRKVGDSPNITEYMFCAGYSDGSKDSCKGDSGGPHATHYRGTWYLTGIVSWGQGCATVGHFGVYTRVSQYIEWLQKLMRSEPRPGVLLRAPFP
T1 sequence (P08709 61-212 limits assumed): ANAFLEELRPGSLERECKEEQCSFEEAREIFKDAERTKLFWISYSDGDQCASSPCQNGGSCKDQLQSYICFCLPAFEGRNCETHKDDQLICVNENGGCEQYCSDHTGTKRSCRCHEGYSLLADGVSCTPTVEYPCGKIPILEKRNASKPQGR
T1 sequence (P13726 33-295 partner): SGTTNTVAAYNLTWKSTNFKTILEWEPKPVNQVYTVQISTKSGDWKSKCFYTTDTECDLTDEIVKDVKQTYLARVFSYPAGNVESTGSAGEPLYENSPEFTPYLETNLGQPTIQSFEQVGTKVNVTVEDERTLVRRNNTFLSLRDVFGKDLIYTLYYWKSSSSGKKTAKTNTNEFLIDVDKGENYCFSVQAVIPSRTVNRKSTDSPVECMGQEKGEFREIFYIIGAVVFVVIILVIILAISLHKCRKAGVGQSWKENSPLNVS
Put plainly: Inhibitory activity against clotting factor VIIa (chromogenic substrate Spectrozyme FVIIa, TF/Factor VIIa enzyme solution). The class given is biochemical. Particulars: human Factor VIIa 5 nmol/L with human TF 10 nmol/L, room temperature 40 minutes, 405 nm. An outline of the steps:
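Human Factor VIIa (5 nmol/L) with human TF (10 nmol/L) in Tris-BSA buffer pH 7.4 containing 15 mmol/L CaCl2 and cephalin, with Spectrozyme FVIIa substrate. Reaction 40 min at room temperature; 4-nitroanilide read at 405 nm. IC50 by non-linear regression over 100 μmol/L–0.1 nmol/L.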
Turning to `COc1cc(C(Nc2ccc(C(=N)N)cc2)c2nn(-c3ccccc3C(N)=O)c(=O)[nH]2)ccc1OCC(=O)N(C)C` (stereo not drawn) [Example 105, 2-{3-[(4-carbamimidoyl-phenylamino)-(4-dimethylcarbamoylmethoxy-3-methoxyphenyl)methyl]-5-oxo-4,5-dihydro-1H-[1,2,4]triazol-1-yl}benzamide trifluoroacetate], half-maximal inhibition (IC50) was put at 31.7 nM.
`CCOc1cc(COC)cc(C(Nc2ccc(C(=N)N)cc2)c2nn(-c3ncccn3)c(=O)[nH]2)c1` (stereo not drawn) [Example 83, 4-{[(3-ethoxy-5-methoxymethylphenyl)-(5-oxo-1-pyrimidin-2-yl-4,5-dihydro-1H-[1,2,4]triazol-3-yl)methyl]amino}benzamidine acetate]: the midpoint of inhibition, the IC50, lay at 24.8 nM.
For the molecule `COc1cc(C(Nc2ccc(C(=N)N)cc2)c2nn(-c3ncccn3)c(=O)[nH]2)c(F)c2c1OCCCO2` (racemic) [Example 42, (R) and (S)-4-{[(6-fluoro-9-methoxy-3,4-dihydro-2H-benzo[b][1,4]dioxepin-7-yl)-(5-oxo-1-pyrimidin-2-yl-4,5-dihydro-1H-[1,2,4]triazol-3-yl)methyl]amino}benzamidine acetate], it took 3.6 nM to reach half-maximal inhibition (IC50).
Turning to `COc1cc(F)c(C(Nc2ccc(C(=N)N)cc2)c2nn(-c3ncsc3C(=O)O)c(=O)[nH]2)cc1OC` (racemic) [Example 162, (R) and (S)-4-{3-[(4-carbamimidoylphenylamino)-(2-fluoro-4,5-dimethoxyphenyl)methyl]-5-oxo-4,5-dihydro[1,2,4]triazol-1-yl}thiazole-5-carboxylic acid], half-maximal inhibition (IC50) required 16.5 nM.
`COc1cc(C(Nc2ccc(C(=N)N)cc2)c2nn(-c3ccccc3C(=O)O)c(=O)[nH]2)c(F)cc1OCCO` (racemic) [Example 178, (R) and (S)-2-(3-{(4-carbamimidoylphenylamino)-[2-fluoro-4-(2-hydroxyethoxy)-5-methoxyphenyl]methyl}-5-oxo-4,5-dihydro-[1,2,4]triazol-1-yl)benzoic acid]: the half-maximal inhibitory concentration (IC50) (in general, the point on the concentration scale where inhibition reaches its midpoint) was determined as 14.3 nM. This IC50 and that of the molecule before are within 1.5-fold of each other.
The result for `COc1cc(C(Nc2ccc(C(=N)N)cc2)c2nn(-c3ncccc3N)c(=O)[nH]2)cc(OC)n1` (racemic) [Example 55, (R) and (S)-4-({[1-(3-aminopyridin-2-yl)-5-oxo-4,5-dihydro-1H-[1,2,4]triazol-3-yl]-(2,6-dimethoxypyridin-4-yl)methyl}amino)benzamidine acetate] reads 10.3 nM; that for `COc1cc(OCCF)c(F)c(C(Nc2ccc(C(=N)N)cc2)c2nn(-c3cnccn3)c(=O)[nH]2)c1` (racemic) [Example 100, 4-{[(R) and (S)-[2-fluoro-3-(2-fluoroethoxy)-5-methoxyphenyl]-(5-oxo-1-pyrazin-2-yl-4,5-dihydro-1H-[1,2,4]triazol-3-yl)methyl]amino}benzamidine acetate], 5.3 nM; that for `COc1ccc(C(Nc2ccc(C(=N)N)c(F)c2)c2nn(-c3ccccc3C(=O)O)c(=O)[nH]2)cc1OC` (racemic) [Example 37, (R) and (S)-2-{3-[(4-carbamimidoyl-3-fluorophenylamino)-(3,4-dimethoxyphenyl)methyl]-5-oxo-4,5-dihydro-[1,2,4]triazol-1-yl}benzoic acid acetate], 4.4 nM.
Molecule `CCOc1cc(OC)c(F)c(C(Nc2ccc(C(=N)N)cc2)c2nn(-c3ncccn3)c(=O)[nH]2)c1` (racemic) [Example 69, (R) and (S)-4-{[(5-ethoxy-2-fluoro-3-methoxyphenyl)-(5-oxo-1-pyrimidin-2-yl-4,5-dihydro-1H-[1,2,4]triazol-3-yl)methyl]amino}benzamidine acetate] came in with an IC50 of 15.1 nM.
On to `COc1cc(OCCCO)c(F)c(C(Nc2ccc(C(=N)N)cc2)c2nn(-c3[nH]ncc3C(=O)O)c(=O)[nH]2)c1` (stereo not drawn) [Example 177, 5-(3-{(4-carbamimidoylphenylamino)-[2-fluoro-3-(3-hydroxypropoxy)-5-methoxyphenyl]methyl}-5-oxo-4,5-dihydro-[1,2,4]triazol-1-yl)-1H-pyrazole-4-carboxylic acid acetate], for which the IC50 stood at 27.6 nM.
`CCOc1cc(C(Nc2ccc(C(=N)N)cc2)c2nn(-c3ncccc3F)c(=O)[nH]2)ccc1OC` (racemic) [Example 132, (R) and (S)-4-({(3-ethoxy-4-methoxyphenyl)-[1-(3-fluoro-pyridin-2-yl)-5-oxo-4,5-dihydro-1H-[1,2,4]triazol-3-yl]methyl}amino}benzamidine acetate] had an IC50 of 2.4 nM.
To `COc1cc(C(Nc2ccc(C(=N)N)cc2)c2nn(-c3ncccn3)c(=O)[nH]2)cc(C)n1` (racemic) [Example 39, (R) and (S)-4-{[(2-methoxy-6-methyl-pyridin-4-yl)-(5-oxo-1-pyrimidin-2-yl-4,5-dihydro-1H-[1,2,4]triazol-3-yl)methyl]amino}benzamidine acetate] belongs 20.6 nM; to `CCOc1cc(C(Nc2ccc(C(=N)N)cc2)c2nn(-c3ncsc3C(=O)O)c(=O)[nH]2)cnc1OC` (single isomer, unassigned) [Example 185, 4-{3-[(4-Carbamimidoylphenylamino)-(5-ethoxy-6-methoxypyridin-3-yl)methyl]-5-oxo-4,5-dihydro-[1,2,4]triazol-1-yl}thiazole-5-carboxylic acid], 11.6 nM; to `CCOc1cc(C(Nc2ccc(C(=N)N)cc2)c2nn(-c3cccnn3)c(=O)[nH]2)ccc1OC` (racemic) [Example 121, (R) and (S)-4-{[(3-ethoxy-4-methoxyphenyl)-(5-oxo-1-pyridazin-3-yl-4,5-dihydro-1H-[1,2,4]triazol-3-yl)methyl]amino}benzamidine acetate], 6.8 nM.
`COc1cc(C(Nc2ccc(C(=N)N)cc2)c2nn(-c3ncsc3C(=O)O)c(=O)[nH]2)cc2c1OCCCO2` (single isomer, unassigned) [Example 180, 4-{3-[(4-carbamimidoylphenylamino)-(9-methoxy-3,4-dihydro-2H-benzo[b][1,4]dioxepin-7-yl)methyl]-5-oxo-4,5-dihydro-[1,2,4]triazol-1-yl}thiazole-5-carboxylic acid] returned an IC50 of 10.1 nM.
Turning to `CCOc1cc(OCCF)cc(C(Nc2ccc(C(=N)N)cc2)c2nn(-c3ncccn3)c(=O)[nH]2)c1` (racemic) [Example 78, (R) and (S)-4-({[3-ethoxy-5-(2-fluoroethoxy)phenyl]-(5-oxo-1-pyrimidin-2-yl-4,5-dihydro-1H-[1,2,4]triazol-3-yl)methyl}amino)benzamidine trifluoroacetate], the midpoint of inhibition, the IC50, lay at 12.5 nM.
As for `COc1cc(F)c(C(Nc2ccc(C(=N)N)cc2)c2nn(-c3[nH]ncc3C(=O)O)c(=O)[nH]2)cc1OC` (racemic) [Example 194, (R) and (S)-5-{3-[(4-Carbamimidoylphenylamino)-(2-fluoro-4,5-dimethoxyphenyl)methyl]-5-oxo-4,5-dihydro-[1,2,4]triazol-1-yl}-1H-pyrazole-4-carboxylic acid acetate], the half-inhibitory concentration (IC50) was 74.5 nM. This IC50 is about 6-fold higher than that of the molecule before.
As to `COc1cc(C(Nc2ccc(C(=N)N)cc2)c2nn(-c3cccnn3)c(=O)[nH]2)cc(OCCF)c1OC` (racemic) [Example 89, 4-{[(R) and (S)-[3-(2-fluoroethoxy)-4,5-dimethoxyphenyl]-(5-oxo-1-pyridazin-3-yl-4,5-dihydro-1H-[1,2,4]triazol-3-yl)methyl]amino}benzamidine acetate], inhibition was half-maximal at 9.2 nM (IC50).
The molecule `COc1cc(OCCCO)c(F)c(C(Nc2ccc(C(=N)N)cc2)c2nn(-c3[nH]ncc3C(=O)O)c(=O)[nH]2)c1` (single isomer, unassigned) [Example 198, (R) or (S)-5-(3-{(4-Carbamimidoylphenylamino)-[2-fluoro-3-(3-hydroxypropoxy)-5-methoxyphenyl]methyl}-5-oxo-4,5-dihydro-[1,2,4]triazol-1-yl)-1H-pyrazole-4-carboxylic acid acetate] came in with an IC50 of 19.6 nM.
Take `COc1cc(F)c(C(Nc2ccc(C(=N)N)cc2)c2nn(-c3cnccn3)c(=O)[nH]2)cc1OC` (racemic) [Example 101, 4-{[(R) and (S)-(2-fluoro-4,5-dimethoxyphenyl)-(5-oxo-1-pyrazin-2-yl-4,5-dihydro-1H-[1,2,4]triazol-3-yl)methyl]amino}benzamidine acetate]: the half-inhibitory concentration (IC50) came out at 11 nM.
In turn, `COc1cc(C(Nc2ccc(C(=N)N)cc2)c2nn(-c3ncccc3N)c(=O)[nH]2)c(F)c2c1OCC2` (racemic) [Example 52, (R) and (S)-4-({[1-(3-aminopyridin-2-yl)-5-oxo-4,5-dihydro-1H-[1,2,4]triazol-3-yl]-(4-fluoro-7-methoxy-2,3-dihydrobenzofuran-5-yl)methyl}amino)benzamidine diacetate] displayed an IC50 of 5.2 nM.
In turn, `CCOc1cc(OC)cc(C(Nc2ccc(C(=N)N)cc2)c2nn(-c3cccnn3)c(=O)[nH]2)c1` (racemic) [Example 65, (R) and (S)-4-{[(3-ethoxy-5-methoxyphenyl)-(5-oxo-1-pyridazin-3-yl-4,5-dihydro-1H-[1,2,4]triazol-3-yl)methyl]amino}benzamidine acetate] registered an IC50 of 5.3 nM.
Molecule `COc1cc(OCF)c(F)c(C(Nc2ccc(C(=N)N)cc2)c2nn(-c3ncccn3)c(=O)[nH]2)c1` (racemic) [Example 103, 4-{[(R) and (S)-(2-fluoro-3-fluoromethoxy-5-methoxyphenyl)-(5-oxo-1-pyrimidin-2-yl-4,5-dihydro-1H-[1,2,4]triazol-3-yl)methyl]amino}benzamidine acetate] displayed an IC50 of 8.9 nM. This IC50 lies about 1.7-fold higher than the previous one.
The result for `C=Cc1cc(O[C@H]2CCOC2)cc(C(Nc2ccc(C(=N)N)cc2)c2nn(-c3ncccn3)c(=O)[nH]2)c1` (mixture of isomers) [Example 45(1), 4-[((R) and (S)-(5-oxo-1-pyrimidin-2-yl-4,5-dihydro-1H-[1,2,4]triazol-3-yl)-{3-[(S)-(tetrahydrofuran-3-yl)oxy]-5-vinylphenyl}methyl)amino]benzamidine acetate] reads 1.3 nM.

Values taken from patent publication US7816522B2, “Triazolone derivatives” (Eisai Co., Ltd., priority 2006, dated 2010).
